Literature values, collected in patent US20160354391A1, “USE IN SINGLE PILL/TABLET/CAPSULE OF MINOCYCLINE, FLUCONAZOLE AND ATORVASTATIN IN THE TREATMENT OF MULTIPLE SCLEROSIS” (priority 2014, published 2016).

Tests used:
[1] = in vivo

elimination time [1]	Compound	patients who develop thyroid autoimmune diseases
up to 2 years	C/C(O)=C(\C#N)C(=O)Nc1ccc(C(F)(F)F)cc1 [Teriflunomide]	
	Alemtuzumab	approximately 40%
